Data published in BindingDB's records for patent US20260001833 (The Cleveland Clinic Foundation, 2026).

Molecular target: T1, Choline trimethylamine-lyase (UniProt A0AAJ0YC41)
T1 sequence (A0AAJ0YC41 whole entry): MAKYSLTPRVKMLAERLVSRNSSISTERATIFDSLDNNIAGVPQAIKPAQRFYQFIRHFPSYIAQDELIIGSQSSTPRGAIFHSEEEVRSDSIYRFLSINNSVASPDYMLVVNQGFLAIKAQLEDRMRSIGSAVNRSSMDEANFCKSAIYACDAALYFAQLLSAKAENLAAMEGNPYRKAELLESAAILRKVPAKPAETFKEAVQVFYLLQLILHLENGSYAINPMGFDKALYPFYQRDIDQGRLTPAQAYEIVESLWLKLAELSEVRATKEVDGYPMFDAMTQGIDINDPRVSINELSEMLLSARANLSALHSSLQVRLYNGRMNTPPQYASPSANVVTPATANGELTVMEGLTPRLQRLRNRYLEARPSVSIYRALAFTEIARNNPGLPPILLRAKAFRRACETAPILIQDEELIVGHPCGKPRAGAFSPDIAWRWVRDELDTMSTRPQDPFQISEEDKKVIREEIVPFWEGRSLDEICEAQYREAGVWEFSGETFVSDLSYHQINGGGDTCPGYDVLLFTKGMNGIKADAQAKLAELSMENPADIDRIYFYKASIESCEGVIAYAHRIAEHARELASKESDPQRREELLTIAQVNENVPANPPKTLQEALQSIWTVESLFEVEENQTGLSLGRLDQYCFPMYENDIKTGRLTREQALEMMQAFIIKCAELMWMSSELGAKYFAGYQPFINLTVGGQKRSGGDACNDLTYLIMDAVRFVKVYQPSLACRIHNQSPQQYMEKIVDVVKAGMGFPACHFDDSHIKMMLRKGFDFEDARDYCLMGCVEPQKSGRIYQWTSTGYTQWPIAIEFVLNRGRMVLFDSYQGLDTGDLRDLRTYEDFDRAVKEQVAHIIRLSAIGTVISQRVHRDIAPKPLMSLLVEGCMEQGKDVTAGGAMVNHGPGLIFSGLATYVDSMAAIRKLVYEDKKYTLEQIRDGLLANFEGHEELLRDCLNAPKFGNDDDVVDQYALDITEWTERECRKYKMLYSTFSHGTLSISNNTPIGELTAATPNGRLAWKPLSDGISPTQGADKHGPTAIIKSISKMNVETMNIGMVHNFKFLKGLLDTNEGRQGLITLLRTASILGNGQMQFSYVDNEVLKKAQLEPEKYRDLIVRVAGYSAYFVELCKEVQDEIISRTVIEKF
Assay: In Vitro TMA Inhibition
Protocol: Choline TMA lyase enzymatic activity assays were conducted to measure the conversion of isotope-labeled d9-choline to d9-TMA. Upon thawing an aliquot of frozen clarified lysate on ice and gentle mixing, clarified lysate was diluted to 5 mg/mL in lysis buffer and the necessary co-factors were added (final concentration: 1 mM SAM, 10 mM NaDT, and 2 mM NADH). Potential inhibitor compounds (typically dissolved in H2O) were serially diluted (10-fold) and added to individual reaction mixtures (done in triplicate). The mixture was then allowed to incubate for at least 15 minutes at 22° C. before the addition of substrate (300 μM final d9-choline) to initiate the reaction, which was carried out for 2 hours at room temperature (22° C.) in the dark in gas tight sealed reaction vials. The reactions were quenched with the addition of 200 μL of 1 M NaOH and 0.5 μM of the internal standard ([13C3 15N1]TMA), vortexing and placement in ice. d9-TMA production was quantified using mass spectrometry by measuring the peak area ratio of the precursor to product ion transition of d9-TMA (m/z 69→49) to the internal standard [13C3 15N1]TMA (m/z 64→47).

For `C[N+](C)(CF)CCOC(=O)c1ccc(O)cc1` [US20260001833, Compound 3], the IC50 was 3.6 µM.
